Measurements taken from ChEMBL document CHEMBL1201862, “PubChem BioAssay data set” (2004).
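How tested: cells in 96-well plates exposed to compound for 48 hours at five concentrations. GI50 = concentration required for 50% inhibition of growth.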 The source made the active and inactive calls. No stated cut-off is given here; in the data, active = GI50 up to about 1.1 µM and inactive = higher.

Legend:
Assay in all cases: NCI anticancer screen, dose series, 48 h
DLD-1 = test system: DLD-1
NCI-H23 = test system: NCI-H23
Malme-3M = test system: Malme-3M
OVCAR-8 = test system: OVCAR-8
TK-10 = test system: TK-10
UO-31 = test system: UO-31
LOX IMVI = test system: LOX IMVI
SF-268 = test system: SF-268
SF-295 = test system: SF-295
A498 = test system: A498
UACC-257 = test system: UACC-257
SNB-75 = test system: SNB-75
IGROV-1 = test system: IGROV-1
HOP-62 = test system: HOP-62
Hs-578T = test system: Hs-578T
HCT-15 = test system: HCT-15
SR = test system: SR
SF-539 = test system: SF-539
NCI-H522 = test system: NCI-H522

SMILES	GI50 (DLD-1)	GI50 (NCI-H23)	GI50 (Malme-3M)	GI50 (OVCAR-8)	GI50 (TK-10)	GI50 (UO-31)	GI50 (LOX IMVI)	GI50 (SF-268)	GI50 (SF-295)	GI50 (A498)	GI50 (UACC-257)	GI50 (SNB-75)	GI50 (IGROV-1)	GI50 (HOP-62)	GI50 (Hs-578T)	GI50 (HCT-15) [µM]	GI50 (SR)	GI50 (SF-539)	GI50 (NCI-H522)
Cc1cc(NC(=O)NC(=O)c2ccccc2NC(=O)CN)ccc1Oc1ncc(Br)cn1	1.4 µM (inactive)	0.74 µM (active)	0.0632 µM (active)	1.17 µM (inactive)	9.62 µM (inactive)	0.246 µM (active)	0.971 µM (active)	1.55 µM (inactive)	0.0661 µM (active)	0.454 µM (active)	3.52 µM (inactive)	0.139 µM (active)	0.847 µM (active)	0.215 µM (active)	0.0308 µM (active)	1.41	1.06 µM (active)		
CC(C)(C)c1cc(Oc2ccc(C#N)c(C#N)c2)cc(C(C)(C)C)c1	> 100 µM (inactive)	> 100 µM (inactive)	> 100 µM (inactive)	> 100 µM (inactive)	> 100 µM (inactive)	> 100 µM (inactive)	33.4 µM (inactive)	> 100 µM (inactive)	> 100 µM (inactive)	> 100 µM (inactive)	> 100 µM (inactive)	> 100 µM (inactive)	> 100 µM (inactive)	> 100 µM (inactive)		48.3	19.8 µM (inactive)	> 100 µM (inactive)	36.1 µM (inactive)
Cc1ccc(C)c(NC(=O)c2cc(-c3ccc([N+](=O)[O-])cc3)nc(N)n2)c1	> 100 µM (inactive)	> 100 µM (inactive)	> 100 µM (inactive)	> 100 µM (inactive)	> 100 µM (inactive)	> 100 µM (inactive)	> 100 µM (inactive)	> 100 µM (inactive)	> 100 µM (inactive)	> 100 µM (inactive)	> 100 µM (inactive)	> 100 µM (inactive)	> 100 µM (inactive)	> 100 µM (inactive)		> 100	> 100 µM (inactive)	> 100 µM (inactive)	> 100 µM (inactive)
Clc1ccc(-n2nnc(C3=NCCCN3)c2-c2ccccc2)cc1	> 100 µM (inactive)	> 100 µM (inactive)	> 100 µM (inactive)	> 100 µM (inactive)	> 100 µM (inactive)	88.7 µM (inactive)	> 100 µM (inactive)	> 100 µM (inactive)	> 100 µM (inactive)	> 100 µM (inactive)	> 100 µM (inactive)	> 100 µM (inactive)	> 100 µM (inactive)	> 100 µM (inactive)		> 100	> 100 µM (inactive)	> 100 µM (inactive)	> 100 µM (inactive)
COc1cccc(-c2cc(C(=O)Nc3ccc(Cl)cc3)nc(N)n2)c1	69.5 µM (inactive)	75 µM (inactive)	57.7 µM (inactive)	98.9 µM (inactive)	> 100 µM (inactive)	> 100 µM (inactive)	66.1 µM (inactive)	65.2 µM (inactive)	87.9 µM (inactive)	61.9 µM (inactive)	81.1 µM (inactive)	21.4 µM (inactive)	50.7 µM (inactive)	> 100 µM (inactive)		41.5	45.1 µM (inactive)	40 µM (inactive)	32.4 µM (inactive)
COc1ccc(-c2cc(-c3ccccc3)c(C#N)c(=O)[nH]2)cc1	> 100 µM (inactive)	> 100 µM (inactive)	> 100 µM (inactive)	> 100 µM (inactive)	> 100 µM (inactive)	> 100 µM (inactive)	> 100 µM (inactive)	> 100 µM (inactive)	> 100 µM (inactive)	> 100 µM (inactive)	> 100 µM (inactive)	57.7 µM (inactive)	> 100 µM (inactive)	> 100 µM (inactive)		> 100	> 100 µM (inactive)	> 100 µM (inactive)	> 100 µM (inactive)
